{
  "source": "patent US7494780B2",
  "about": "“Epididymis-specific defensin for evaluating and regulating male fertility” (The Chinese University of Hong Kong, priority 2004, dated 2009)",
  "test_system": "Bin1b",
  "assay": "In vivo antisense oligonucleotide treatment, injection into mid-caput epididymis",
  "design": "species or system rat",
  "method": "Sperm motility analysis. For the motility analysis, we used an HTM-IVOS system (version 10.8, Hamilton-Thorn Research) with the following settings: objective, ×4; minimum cell size, six pixels; minimum contrast, 65; minimum static contrast, 30; low VAP cut-off, 30.0; low VSL cut-off, 20.0; threshold straightness, 50%; static head size, 0.29-10.0; static head intensity, 0.29-1.11; magnification, 0.82. Sixty frames were acquired at a frame rate of 60 Hz. At least 200 tracks were measured for each specimen at 37° C. We recorded at least 30 points for each tract. The playback function of the system was used to check its accuracy.\nFlow cytometry analysis. Rat sperm were stained with Bin1b polyclonal antibody at a final concentration of 1:200. In control samples, the antibody was replaced by preimmune serum at the same concentration. After incubation at 4° C. overnight, the sperm were washed twice with PBS containing 4 mg ml^−1 bovine serum albumin and incubated for 45 min at 22° C. with the secondary antibody, fluorescein isothiocyanate (FITC)-conjugated goat antibody against rabbit IgG (Zymed Laboratories) at a dilution of 1:50. After three washes, the sperm were analysed on a flow cytometer (Beckman Coulter). We analyzed 10,000 individual sperm per sample for FITC fluorescence emissions. A negative control of sperm stained by normal rabbit IgG was used to set the threshold for specific Bin1b staining. The percentage of sperm specifically stained for Bin1b was obtained by subtracting background fluorescence.\nIn vivo antisense oligonucleotide treatment. The skin covering the testis of a male Sprague-Dawley rat (aged >3 months) was cut open under anaesthesia and 30 μl of Bin1b antisense oligonucleotide (5′-[…]-3′; SEQ ID NO:3) or control sense oligonucleotide (5′-[…]-3′; SEQ ID NO:4) solution (20 μg ml^−) was injected into the proximal side of the mid-caput epididymis. The sperm were collected for assessment 48 h after injection. The use of animals in this project was authorized by the Animal Research Ethics Committee of The Chinese University of Hong Kong.",
  "key": {"[1]": {"conditions": "versus sense oligonucleotide control, 48 h after injection"}},
  "data": [
    {"substance": "5′-AGAGTAACAAAACCTTCATG-3′ (listed as DNA, chemistry not given here) [antisense Bin1b oligonucleotide]", "values": [
      {"measurement": "expression of Bin1b messenger RNA in the caput epididymis (semiquantitative RT-PCR)", "setting": "20 μg ml^−1, versus sense control", "result": "significantly suppressed"},
      {"measurement": "Bin1b binding to sperm collected in the distal caput region (flow cytometry)", "setting": "versus sense control", "result": "considerable reduction"},
      {"measurement": "motility of sperm from the distal caput epididymis", "setting": "[1]", "result": "reduced sperm motility"},
      {"measurement": "progressive movement of sperm from the distal caput epididymis", "setting": "[1]", "result": "significantly lower"},
      {"measurement": "motility of sperm from the distal caput epididymis", "setting": "versus sense oligonucleotide control, 48 h after injection, listed as Bin1b antisense oligonucleotide", "result": "significantly lower"}
    ]}
  ]
}
